Test results reported in ChEMBL document CHEMBL3044631, “Synthesis of 2-[4,5-dimethyl-1-(phenylamino)-1H-imidazol-2-ylthio]-N-(thiazole-2-yl)acetamide derivatives and their anticancer activities” (2013).

Tests used:
Type in all cases: functional
[1] = test system: K562; test: Anticancer activity against Homo sapiens (human) K562 cells assessed as cell growth promotion at 10 uM after 48 hr by SRB assay
[2] = test system: UACC-257; test: Anticancer activity against Homo sapiens (human) UACC257 cells assessed as cell growth promotion at 10 uM after 48 hr by SRB assay
[3] = test system: SW-620; test: Anticancer activity against Homo sapiens (human) SW620 cells assessed as cell growth promotion at 10 uM after 48 hr by SRB assay
[4] = test system: NCI-H460; test: Anticancer activity against Homo sapiens (human) NCI-H460 cells assessed as cell growth promotion at 10 uM after 48 hr by SRB assay
[5] = test system: U-251; test: Anticancer activity against Homo sapiens (human) U251 cells assessed as cell growth promotion at 10 uM after 48 hr by SRB assay
[6] = test system: SN12C; test: Anticancer activity against Homo sapiens (human) SN12C cells assessed as cell growth promotion at 10 uM after 48 hr by SRB assay
[7] = test system: SNB-75; test: Anticancer activity against Homo sapiens (human) SNB75 cells assessed as cell growth promotion at 10 uM after 48 hr by SRB assay
[8] = test system: OVCAR-8; test: Anticancer activity against Homo sapiens (human) OVCAR8 cells assessed as cell growth promotion at 10 uM after 48 hr by SRB assay
[9] = test system: DU-145; test: Anticancer activity against Homo sapiens (human) DU145 cells assessed as cell growth promotion at 10 uM after 48 hr by SRB assay
[10] = test system: A549; test: Anticancer activity against Homo sapiens (human) A549/ATCC cells assessed as cell growth promotion at 10 uM after 48 hr by SRB assay
[11] = test system: SK-MEL-28; test: Anticancer activity against Homo sapiens (human) SK-MEL-28 cells assessed as cell growth promotion at 10 uM after 48 hr by SRB assay
[12] = test system: SNB-19; test: Anticancer activity against Homo sapiens (human) SNB19 cells assessed as cell growth promotion at 10 uM after 48 hr by SRB assay
[13] = test system: NCI-H23; test: Anticancer activity against Homo sapiens (human) NCI-H23 cells assessed as cell growth promotion at 10 uM after 48 hr by SRB assay
[14] = test system: HCC 2998; test: Anticancer activity against Homo sapiens (human) HCC2998 cells assessed as cell growth promotion at 10 uM after 48 hr by SRB assay
[15] = test system: LOX IMVI; test: Anticancer activity against Homo sapiens (human) LOXIMVI cells assessed as cell growth promotion at 10 uM after 48 hr by SRB assay
[16] = test system: SF-295; test: Anticancer activity against Homo sapiens (human) SF295 cells assessed as cell growth promotion at 10 uM after 48 hr by SRB assay
[17] = test system: SK-MEL-5; test: Anticancer activity against Homo sapiens (human) SK-MEL-5 cells assessed as cell growth promotion at 10 uM after 48 hr by SRB assay
[18] = test system: UO-31; test: Anticancer activity against Homo sapiens (human) UO31 cells assessed as cell growth promotion at 10 uM after 48 hr by SRB assay
[19] = test system: MCF7; test: Anticancer activity against Homo sapiens (human) MCF7 cells assessed as cell growth promotion at 10 uM after 48 hr by SRB assay
[20] = test system: M14; test: Anticancer activity against Homo sapiens (human) M14 cells assessed as cell growth promotion at 10 uM after 48 hr by SRB assay
[21] = test system: HOP-62; test: Anticancer activity against Homo sapiens (human) HOP62 cells assessed as cell growth promotion at 10 uM after 48 hr by SRB assay
[22] = test system: BT-549; test: Anticancer activity against Homo sapiens (human) BT549 cells assessed as cell growth promotion at 10 uM after 48 hr by SRB assay
[23] = test system: HT-29; test: Anticancer activity against Homo sapiens (human) HT-29 cells assessed as cell growth promotion at 10 uM after 48 hr by SRB assay
[24] = test system: OVCAR-4; test: Anticancer activity against Homo sapiens (human) OVCAR4 cells assessed as cell growth promotion at 10 uM after 48 hr by SRB assay
[25] = test system: MDA-MB-468; test: Anticancer activity against Homo sapiens (human) MDA-MB-468 cells assessed as cell growth promotion at 10 uM after 48 hr by SRB assay
[26] = test system: KM12; test: Anticancer activity against Homo sapiens (human) KM12 cells assessed as cell growth promotion at 10 uM after 48 hr by SRB assay
[27] = test system: Malme-3M; test: Anticancer activity against Homo sapiens (human) MALME-3M cells assessed as cell growth promotion at 10 uM after 48 hr by SRB assay
[28] = test system: HL-60(TB); test: Anticancer activity against Homo sapiens (human) HL-60(TB) cells assessed as cell growth promotion at 10 uM after 48 hr by SRB assay
[29] = test system: HOP-92; test: Anticancer activity against Homo sapiens (human) HOP92 cells assessed as cell growth promotion at 10 uM after 48 hr by SRB assay
[30] = test system: CAKI-1; test: Anticancer activity against Homo sapiens (human) CAKI-1 cells assessed as cell growth promotion at 10 uM after 48 hr by SRB assay
[31] = test system: MDA-MB-435; test: Anticancer activity against Homo sapiens (human) MDA-MB-435 cells assessed as cell growth promotion at 10 uM after 48 hr by SRB assay
[32] = test system: T47D; test: Anticancer activity against Homo sapiens (human) T47D cells assessed as cell growth promotion at 10 uM after 48 hr by SRB assay
[33] = test system: SF-268; test: Anticancer activity against Homo sapiens (human) SF268 cells assessed as cell growth promotion at 10 uM after 48 hr by SRB assay
[34] = test system: OVCAR-3; test: Anticancer activity against Homo sapiens (human) OVCAR3 cells assessed as cell growth promotion at 10 uM after 48 hr by SRB assay
[35] = test system: 786-0; test: Anticancer activity against Homo sapiens (human) 786-0 cells assessed as cell growth promotion at 10 uM after 48 hr by SRB assay
[36] = test system: EKVX; test: Anticancer activity against Homo sapiens (human) EKVX cells assessed as cell growth promotion at 10 uM after 48 hr by SRB assay
[37] = test system: OVCAR-5; test: Anticancer activity against Homo sapiens (human) OVCAR5 cells assessed as cell growth promotion at 10 uM after 48 hr by SRB assay
[38] = test system: SK-MEL-2; test: Anticancer activity against Homo sapiens (human) SK-MEL-2 cells assessed as cell growth promotion at 10 uM after 48 hr by SRB assay
[39] = test system: A498; test: Anticancer activity against Homo sapiens (human) A498 cells assessed as cell growth promotion at 10 uM after 48 hr by SRB assay
[40] = test system: MDA-MB-231; test: Anticancer activity against Homo sapiens (human) MDA-MB-231/ATCC cells assessed as cell growth promotion at 10 uM after 48 hr by SRB assay

Row | Compound | Activity [1] [%] | Activity [2] [%] | Activity [3] [%] | Activity [4] [%] | Activity [5] [%] | Activity [6] [%] | Activity [7] [%] | Activity [8] [%] | Activity [9] [%] | Activity [10] [%] | Activity [11] [%] | Activity [12] [%] | Activity [13] [%] | Activity [14] [%] | Activity [15] [%] | Activity [16] [%] | Activity [17] [%] | Activity [18] [%] | Activity [19] [%] | Activity [20] [%] | also measured
1 | COc1ccc(Nn2c(SCC(=O)Nc3nccs3)nc(C)c2C)cc1 | 99.68 | 108.29 | 113.7 | 108.22 | 104.49 | 98.23 | 100.22 | 103.25 | 112.49 | 104.98 | 113.96 | 109.69 | 106.56 | 110.49 | 105.4 | 91.49 | 102.75 | 86.71 | 102.31 | 107.71 | Activity [21]: 106.4%; Activity [22]: 105.55%; Activity [23]: 102.36%; Activity [24]: 110.54%; Activity [25]: 94.85%; Activity [26]: 96.74%; Activity [27]: 119.7%; Activity [28]: 98.86%; Activity [29]: 117.01%; Activity [30]: 90.35%; Activity [31]: 97.68%; Activity [32]: 94.87%; Activity [33]: 103.59%; Activity [34]: 113.42%; Activity [35]: 100.29%; Activity [36]: 108.98%; Activity [37]: 89.33%; Activity [38]: 92.7%; Activity [39]: 99.48%; Activity [40]: 105.41%
2 | CCOC(=O)c1csc(NC(=O)CSc2nc(C)c(C)n2Nc2ccc(C)cc2)n1 | 78.51 | 88.46 | 98.75 | 109.11 | 76.07 | 62.75 | 83.76 | 82.64 | 108.96 | 82.13 | 80.17 | 75.4 | 74.71 | 96.72 | 77.98 | 53.71 | 47.48 | 62.65 | 80.14 | 70.97 | Activity [21]: 63.23%; Activity [22]: 91.44%; Activity [23]: 52.44%; Activity [24]: 74.76%; Activity [25]: 67.17%; Activity [26]: 108.43%; Activity [27]: 110.81%; Activity [28]: 77.24%; Activity [29]: 44.51%; Activity [30]: 80.52%; Activity [31]: 78.21%; Activity [32]: 57.89%; Activity [33]: 102.22%; Activity [34]: 108.5%; Activity [35]: 83.82%; Activity [36]: 99.66%; Activity [37]: 74.57%; Activity [38]: 93.46%; Activity [39]: 90.47%; Activity [40]: 62.5%
3 | Cc1nc(SCC(=O)Nc2nccs2)n(Nc2ccccc2)c1C | 101.35 | 94.83 | 116.34 | 102.18 | 102.44 | 94.4 | 85.3 | 95.17 | 116.36 | 98.55 | 99.72 | 108.55 | 97.67 | 101.96 | 99.28 | 86.6 | 94.75 | 84.18 | 98.76 | 96.9 | Activity [21]: 83.75%; Activity [22]: 96.32%; Activity [23]: 99.8%; Activity [24]: 103.25%; Activity [25]: 105.55%; Activity [26]: 109.29%; Activity [27]: 121.77%; Activity [28]: 96.52%; Activity [29]: 76.48%; Activity [30]: 102.08%; Activity [31]: 104.58%; Activity [32]: 90.52%; Activity [33]: 106.58%; Activity [34]: 116.22%; Activity [35]: 103.46%; Activity [36]: 115.74%; Activity [37]: 80.93%; Activity [38]: 106.73%; Activity [39]: 101.7%; Activity [40]: 95.5%
